Where a SMILES comes first, the peptide text is derived from it. The star is where a group is joined. Propanoyl(2S-SH,3-Ph) = O=C([C@@H](S)Cc1ccccc1)*; X1 = O=C([C@H](S)Cc1ccccc1)*
target: Botulinum neurotoxin type A (Clostridium botulinum (strain Hall / ATCC 3502 / NCTC 13319 / Type A), UniProt P0DPI1); assay: Inhibition of BoNT/A light chain metalloprotease activity
Sequence (P0DPI1 2-448 limits assumed): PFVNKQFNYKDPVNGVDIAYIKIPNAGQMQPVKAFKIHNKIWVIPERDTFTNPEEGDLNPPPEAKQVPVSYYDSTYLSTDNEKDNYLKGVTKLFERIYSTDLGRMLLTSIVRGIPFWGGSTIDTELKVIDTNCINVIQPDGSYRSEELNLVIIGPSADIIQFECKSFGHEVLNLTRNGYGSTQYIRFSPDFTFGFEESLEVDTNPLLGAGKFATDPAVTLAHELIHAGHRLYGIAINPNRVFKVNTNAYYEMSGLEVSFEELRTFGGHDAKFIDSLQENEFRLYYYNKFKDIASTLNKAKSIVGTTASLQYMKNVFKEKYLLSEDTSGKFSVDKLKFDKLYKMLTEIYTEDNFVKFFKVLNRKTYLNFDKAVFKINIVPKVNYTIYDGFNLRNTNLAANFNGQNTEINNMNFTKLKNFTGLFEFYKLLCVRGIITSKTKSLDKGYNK

Compared with `N=C(N)c1ccc2oc(/C=C/C=C/C=C/c3cc4cc(C(=N)N)ccc4o3)cc2c1`, `N=C(N)N/N=C/c1ccc(-c2cc3ccc(/C=N/NC(=N)N)cc3s2)cc1` is 2-fold lower in Ki: 6 µM for the first, 3 µM for the second. The second binds more tightly here.

First: C(=C\c1cc2ccc(C3=NCCN3)cc2[nH]1)/c1ccc2cc(C3=NCCN3)[nH]c2c1
Second: NC(N)=NCCC[C@H](NC(=O)[C@@H](S)Cc1ccccc1)C(=O)O
The Ki of the first is 6-fold lower: 10 µM for the first, 60 µM for the second. The first binds more tightly here.

Going from `C[C@H](NC(=O)[C@H](CCCNC(=N)N)NC(=O)[C@@H](S)Cc1ccccc1)C(=O)O` to `C[C@H](NC(=O)[C@H](CCCNC(=N)N)NC(=O)[C@@H](S)Cc1ccccc1)C(=O)N[C@H](C(=O)O)[C@@H](C)O`, the Ki falls from 60 µM to 30 µM (2-fold). The second binds more tightly here.

Compared with `CSCC[C@H](NC(=O)[C@H](CCCCN)NC(=O)[C@@H](NC(=O)[C@H](C)NC(=O)[C@H](CCCNC(=N)N)NC(=O)[C@@H](N)CS)[C@@H](C)O)C(=O)N[C@@H](CC(C)C)C(=O)O` (H-CRATKML-OH), `CSCC[C@H](NC(=O)[C@H](CCCCN)NC(=O)[C@@H](NC(=O)[C@H](C)NC(=O)[C@H](CCCNC(=N)N)NC(=O)[C@H](S)Cc1ccccc1)[C@@H](C)O)C(=O)N[C@@H](CC(C)C)C(=O)O` (X1-RATKML-OH) is 4-fold higher in Ki: 2 µM for the first, 8 µM for the second. The first binds more tightly here.

Going from `CSCC[C@H](NC(=O)[C@H](CCCCN)NC(=O)[C@@H](NC(=O)[C@H](C)NC(=O)[C@H](CCCCN)NC(=O)[C@@H](S)Cc1ccccc1)[C@@H](C)O)C(=O)N[C@@H](CC(C)C)C(=O)O` ({Propanoyl(2S-SH,3-Ph)}-KATKML-OH) to `CSCC[C@H](NC(=O)[C@H](CCCCN)NC(=O)[C@@H](NC(=O)[C@H](C)NC(=O)[C@H](CCCNC(=N)N)NC(=O)[C@@H](S)Cc1ccccc1)[C@@H](C)O)C(=O)N[C@@H](CC(C)C)C(=O)O` ({Propanoyl(2S-SH,3-Ph)}-RATKML-OH), the Ki falls from > 300 µM to 0.3 µM.

`CSCC[C@H](NC(=O)[C@H](CCCCN)NC(=O)[C@H](C)NC(=O)[C@H](C)NC(=O)[C@H](CCCNC(=N)N)NC(=O)[C@@H](S)Cc1ccccc1)C(=O)N[C@@H](CC(C)C)C(=O)O` ({Propanoyl(2S-SH,3-Ph)}-RAAKML-OH) and `CC(C)C[C@H](NC(=O)[C@H](C)NC(=O)[C@H](CCCCN)NC(=O)[C@@H](NC(=O)[C@H](C)NC(=O)[C@H](CCCNC(=N)N)NC(=O)[C@@H](S)Cc1ccccc1)[C@@H](C)O)C(=O)O` ({Propanoyl(2S-SH,3-Ph)}-RATKAL-OH) are the same in Ki: 0.7 µM for the first, 0.7 µM for the second.

Compared with `CSCC[C@H](NC(=O)[C@H](C)NC(=O)[C@@H](NC(=O)[C@H](C)NC(=O)[C@H](CCCN=C(N)N)NC(=O)[C@@H](S)Cc1ccccc1)[C@@H](C)O)C(=O)N[C@@H](CC(C)C)C(=O)O` ({Propanoyl(2S-SH,3-Ph)}-RATAML-OH), `CSCC[C@H](NC(=O)[C@H](CCCCN)NC(=O)[C@@H](NC(=O)[C@@H](NC(=O)[C@H](CCCN=C(N)N)NC(=O)[C@@H](S)Cc1ccccc1)C(C)C)[C@@H](C)O)C(=O)N[C@@H](CC(C)C)C(=O)O` ({Propanoyl(2S-SH,3-Ph)}-RVTKML-OH) is 1.5-fold lower in Ki: 3 µM for the first, 2 µM for the second. The second binds more tightly here.

First: C[C@H](NC(=O)[C@H](CCCNC(=N)N)NC(=O)[C@@H](S)Cc1ccccc1)C(=O)N[C@H](C(=O)N[C@@H](CCCCN)C(=O)O)[C@@H](C)O ({Propanoyl(2S-SH,3-Ph)}-RATK-OH)
Second: CSCC[C@H](NC(=O)[C@H](CCCCN)NC(=O)[C@@H](NC(=O)[C@H](C)NC(=O)[C@H](CCCN=C(N)N)NC(=O)[C@@H](S)Cc1ccccc1)[C@@H](C)O)C(=O)O ({Propanoyl(2S-SH,3-Ph)}-RATKM-OH)
The Ki of the first is 10-fold higher: 4 µM for the first, 0.4 µM for the second. The second binds more tightly here.

With `CSCC[C@H](NC(=O)[C@H](CCCCN)NC(=O)[C@@H](NC(=O)[C@H](C)NC(=O)[C@H](CCCNC(=N)N)NC(=O)[C@@H](S)Cc1ccccc1)[C@@H](C)O)C(=O)N[C@@H](CC(C)C)C(=O)NCC(=O)N[C@@H](CO)C(=O)NCC(=O)O` ({Propanoyl(2S-SH,3-Ph)}-RATKMLGSG-OH) the Ki was 0.3 µM.

system: not listed separately; assay: Cytotoxicity in embryonic chicken spinal neurons at 1 to 5 uM after 3.5 hrs; design: species or system Gallus gallus

With `N=C(N)c1ccc2oc(/C=C/C=C/C=C/c3cc4cc(C(=N)N)ccc4o3)cc2c1` the Activity was “Toxic”.
With `N=C(N)N/N=C/c1ccc(-c2cc3ccc(/C=N/NC(=N)N)cc3s2)cc1` the Activity was “Toxic”.

Reference: ChEMBL document CHEMBL1156419, “Inhibition of metalloprotease botulinum serotype A from a pseudo-peptide binding mode to a small molecule that is active in primary neurons” (J Biol Chem, 2007)
